Test results as given in ChEMBL document CHEMBL5113465, “Design, synthesis and evaluation of alpha lipoic acid derivatives to treat multiple sclerosis-associated central neuropathic pain” (Bioorg Med Chem, 2022).

Columns and labels:
[1] = Half life in pH 6.8 intestinal enzyme-free fluid assessed as parent compound remaining neutralized with 0.1 N triethylamine solution at 20 mins interval for 3 hrs by HPLC analysis; type: ADME
[2] = Aqueous solubility of compound; type: physicochemical
[3] = Half life in pH 1.5 gastric enzyme-free fluid assessed as parent compound remaining neutralized with 0.1 N triethylamine solution at 20 mins interval for 3 hrs by HPLC analysis; type: ADME
[4] = Octanol/water partition coefficient, log P of the compound by HPLC analysis; type: physicochemical
[5] = Stability of compound in pH 6.8 intestinal enzyme-free fluid assessed as decomposition measured within 20 mins by HPLC analysis; type: ADME; settings: buffer, pH 6.8, 20 min
[6] = Stability of compound in pH 1.5 gastric enzyme-free fluid assessed as decomposition measured within 20 mins by HPLC analysis; type: ADME; settings: buffer, pH 1.5, 20 min
[7] = Stability in mouse plasma at 1 to 500 ppm measured within 1 min by LC-MS analysis; type: ADME, cell-free; settings: dose 1-500 ppm
[8] = Half life in mouse plasma at 0.1 to 50 ppm by LC-MS analysis; type: ADME, cell-free; settings: dose 0.1-50 ppm
[9] = Apparent permeability in human Caco-2 cells measured after 15 mins by LC-MS analysis; type: ADME, cell-based
[10] = aqueous medium, read-out: solubility

Compound | half-life [1] [h] | solubility [2, 10] [µM] | half-life [3] [h] | logP [4] | further results
O=C(CCCC[C@@H]1CCSS1)OCc1cc(=O)c(O)co1 | > 2 | < 10 | > 2 | 2.03 | 
O=C(CCCC[C@@H]1CCSS1)OCCN1CCOCC1 |  | < 10 |  | 2.64 | Drug degradation [5]: Active; Drug degradation [6]: Active
O=C(CCCC[C@@H]1CCSS1)OC(CO)CO | > 2 |  | > 2 |  | 
Cl.O=C(CCCC[C@@H]1CCSS1)OCCN1CCOCC1 |  |  |  |  | Stability [7]: Unstable; solubility ([2]; buffer): Soluble
O=C(CCCC[C@@H]1CCSS1)O[C@H]1[C@H](O)[C@@H](CO)OC(O)[C@@H]1O (some centres undefined) |  | > 10000 |  | 0.31 | half-life [8]: 1.5 h
O=C(CCCC[C@@H]1CCSS1)OCCOCCOCCO | > 2 |  | > 2 |  | 
O=C(CCCC[C@@H]1CCSS1)OC[C@H]1OC(O)[C@H](O)[C@@H](O)[C@@H]1O (some centres undefined) |  | < 2000 |  | 0.94 | 
CN1CCN(CCOC(=O)CCCC[C@@H]2CCSS2)CC1 | > 2 |  | > 2 |  | 
Cc1oc(=O)oc1COC(=O)CCCC[C@@H]1CCSS1 | > 2 |  | > 2 |  | Papp at 0.25 h [9]: 15.9 ×10⁻⁶ cm/s
